In the supplement of paper PMC10307832:

What was measured:
Assay in all cases: relative viability (nuclei count vs DMSO), 5 days (fraction); higher = more cells survive
[1] = compound: C1COCCN1C2=NC(=NC3=C2OC4=C3C=CC=N4)C5=CC(=CC=C5)NC(=O)C6=CN=C(C=C6)N + COc1cccc2cc(-c3nc([C@H]4CC[C@H](C(=O)O)CC4)n4ncnc(N)c34)[nH]c12 [OSI-027] (partner 0.5 µM)
Outline: (§1)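 Nuclei were stained with Hoechst during a one-step fixation (final 0.05% Triton X-100, 1% formaldehyde, 1 ug/ml Hoechst) carried out 5 days after dosing, then counted on 4× images. The cells, lung cancer lines in 1536-well plates, had been dosed by pin tool the day after seeding with one drug alone or a fixed anchor-drug dose plus five library-drug doses (not always all listed) in √10 steps. Relative viability is the nuclei count in treated wells divided by that in vehicle wells, and each value is the median of duplicate plates.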

[2] = compound: C1COCCN1C2=NC(=NC3=C2OC4=C3C=CC=N4)C5=CC(=CC=C5)NC(=O)C6=CN=C(C=C6)N + Nc1nc2[nH]cc(CCc3ccc(C(=O)N[C@@H](CCC(=O)O)C(=O)O)cc3)c2c(=O)[nH]1 [Pemetrexed] (partner 0.2 µM)
Outline: as §1

[3] = compound: C1COCCN1C2=NC(=NC3=C2OC4=C3C=CC=N4)C5=CC(=CC=C5)NC(=O)C6=CN=C(C=C6)N + O=C(CCCCCCC(=O)Nc1ccccc1)NO [Vorinostat] (partner 1 µM)
Outline: as §1

SGI-1776 + Pictilisib = compound: CN1CCC(CNc2ccc3ncc(-c4cccc(OC(F)(F)F)c4)n3n2)CC1 [SGI-1776] + CS(=O)(=O)N1CCN(Cc2cc3nc(-c4cccc5[nH]ncc45)nc(N4CCOCC4)c3s2)CC1 [Pictilisib] (partner 1 µM)
Outline: as §1

Cell Line | relative viability ([1]; first compound 0.02 µM) | relative viability ([1]; first compound 0.06325 µM) | relative viability ([1]; first compound 0.2 µM) | relative viability ([1]; first compound 0.6325 µM) | relative viability ([1]; first compound 2 µM) | relative viability ([2]; first compound 0.02 µM) | relative viability ([2]; first compound 0.06325 µM) | relative viability ([2]; first compound 0.2 µM) | relative viability ([2]; first compound 0.6325 µM) | relative viability ([2]; first compound 2 µM) | relative viability ([3]; first compound 0.02 µM) | relative viability ([3]; first compound 0.06325 µM) | relative viability ([3]; first compound 0.2 µM) | relative viability ([3]; first compound 0.6325 µM) | relative viability ([3]; first compound 2 µM) | relative viability (SGI-1776 + Pictilisib; first compound 0.08 µM) | relative viability (SGI-1776 + Pictilisib; first compound 0.8 µM) | relative viability (SGI-1776 + Pictilisib; first compound 2.53 µM) | relative viability (SGI-1776 + Pictilisib; first compound 8 µM)
NCI-H2023 | 0.369 | 0.419 | 0.277 | 0.182 | 0.167 | 0.278 | 0.222 | 0.196 | 0.166 | 0.134 | 0.602 | 0.747 | 0.506 | 0.623 | 0.319 | 0.23 | 0.23 | 0.202 | 0.147
NCI-H2085 | 0.792 | 0.829 | 0.62 | 0.46 | 0.44 | 0.795 | 0.872 | 0.837 | 0.825 | 0.586 | 0.736 | 0.802 | 0.75 | 0.704 | 0.706 | 0.533 | 0.505 | 0.53 | 0.356
NCI-H2087 | 0.508 | 0.508 | 0.47 | 0.472 | 0.267 | 0.653 | 0.611 | 0.61 | 0.619 | 0.258 | 0.611 | 0.911 | 0.842 | 0.724 | 0.199 | 0.953 | 0.974 | 0.826 | 0.899
NCI-H2126 | 0.664 | 0.767 | 0.652 | 0.675 | 0.708 | 0.706 | 0.784 | 0.674 | 0.629 | 0.559 | 0.707 | 0.941 | 0.758 | 0.786 | 0.582 | 0.499 | 0.534 | 0.501 | 0.468
NCI-H2170 | 0.796 | 0.76 | 0.651 | 0.786 | 0.596 | 0.263 | 0.274 | 0.259 | 0.258 | 0.247 | 0.93 | 0.997 | 0.643 | 0.729 | 0.518 | 0.297 | 0.281 | 0.284 | 0.238
NCI-H2228 | 0.51 | 0.606 | 0.519 | 0.485 | 0.251 | 0.348 | 0.345 | 0.299 | 0.26 | 0.144 | 0.469 | 0.743 | 0.464 | 0.529 | 0.39 | 0.446 | 0.38 | 0.286 | 0.177
NCI-H2347 | 0.384 | 0.504 | 0.367 | 0.355 | 0.311 | 0.416 | 0.528 | 0.433 | 0.417 | 0.427 | 0.582 | 0.494 | 0.645 | 0.528 | 0.559 | 0.614 | 0.941 | 0.734 | 0.614
NCI-H2405 | 0.578 | 0.668 | 0.618 | 0.599 | 0.585 | 1.04 | 1.11 | 1.03 | 0.968 | 0.989 | 1.07 | 1.07 | 1.03 | 0.921 | 0.645 | 0.478 | 0.507 | 0.309 | 0.257
